Test results reported in a melting point compilation (Tetko et al.; mined from patent text by program, amines drawn as free bases though some values may be those of a salt).

`Nc1ccc(C(=O)c2ccccc2)c(Cl)c1` and `O=C(c1ccccc1)c1cc([N+](=O)[O-])ccc1NC1CC1` cannot be ordered by melting point: 120 to 130 °C for the first, 125 °C for the second.

First: CCCc1c(C(=O)C(C)C)c2ccc(C(N)=O)cc2n1Cc1ccccc1C(N)=O
Second: CCCc1ccc(C(=O)OCC)n1Cc1ccc(-c2ccccc2C(=O)O)cc1
The melting point of the first is higher: 273 to 274 °C for the first, 111 to 115 °C for the second.

`O=C1CCCOc2ccc(O)cc21` and `O=C(O)/C(=C/C1CCCCC1)c1ccc(F)c(F)c1` cannot be ordered by melting point: 116 to 120 °C for the first, 119 to 121 °C for the second.

First: CC(=O)CCC(=O)N1CC1C#N (stereo not given)
Second: CCOC(=O)c1cn2c(n1)CN(C(C)=O)CC2
The melting point of the first is lower: 93 to 94 °C for the first, 97 °C for the second.

First: Cn1c(COc2ccc(CC3SC(=O)NC3=O)cc2)nc2cc(Cl)cnc21 (stereo not given)
Second: Oc1ccc(Nc2ncc3ncc(Cl)cc3n2)cc1
The melting point of the first is lower: 203 to 205 °C for the first, 232 to 234 °C for the second.

Compared with `N#Cc1cc2cc(O)c(O)cc2s1`, `Cc1cc2nncc(O)c2cc1C` is higher in melting point: 229 to 230 °C for the first, > 260 °C for the second.

Compared with `O=[N+]([O-])c1ccccc1Nc1ccc(I)cc1`, `Nc1cc(=O)nc(Nc2ccccc2)n1-c1ccc(Cl)cc1` is higher in melting point: 171 to 172 °C for the first, 216 to 222 °C for the second.

First: O=C(NCc1cncs1)c1ccnc(N2CCN(Cc3ccc(F)cc3)C2=O)c1
Second: Cc1nc(N2CCN(CC3CC3)C2=O)sc1C(=O)NCc1ncccc1F
The melting point of the first is higher: 148 to 150 °C for the first, 142 to 144 °C for the second.

Compared with `COC(=O)C(C)c1cc(=O)n(Cc2ccccc2)c2ccccc12` (stereo not given), `CCOC(=O)NC(C(=O)OC)C(c1ccccc1)c1ccccc1` (stereo not given) is higher in melting point: 90 to 92.5 °C for the first, 107 to 109 °C for the second.

First: N#CCCNC(=O)c1cccc(-c2ccc3ccn(-c4ccc(Cl)cc4Cl)c3n2)c1
Second: N=C(Cc1nc2cnc3ccc(Cl)cc3c2n1-c1ccccc1Cl)NO
The melting point of the first is higher: 215 to 216 °C for the first, 114 °C for the second.

First: COC(=O)C1=C(C)NC(C)=C(P(=O)(OC)OC)C1c1cccc([N+](=O)[O-])c1 (stereo not given)
Second: CC(C)NC(=O)c1ccc([N+](=O)[O-])cc1
The melting point of the first is higher: 221 to 223 °C for the first, 152 to 154 °C for the second.

First: Cc1ccc(N2CN(C)CNC2=S)c(C)c1
Second: Cc1ccc2ccc(C)c(O)c2c1
The melting point of the first is higher: 140 to 143 °C for the first, 124 to 125 °C for the second.

First: CN1CCCNC1=Nc1ccccc1N1CCOCC1
Second: CN(C)C1CCN(c2nc(N3CCOCC3)c3ncnc(OCc4ccccc4)c3n2)CC1
The melting point of the first is lower: 138 to 139 °C for the first, 186 to 188 °C for the second.

Compared with `CCC(=O)C1CCC2C3CCC4CC(=O)CCC4(C)C3C(=O)CC12C` (stereo not given), `CC12CCC3C(CC=C4CC(C(=O)CBr)CCC43C)C1CCC2=O` (stereo not given) is higher in melting point: 148 °C for the first, 150 °C for the second.

First: NS(=O)(=O)c1ccc(C2(c3nc4cc(F)ccc4[nH]3)C=C(C(F)(F)F)NN2)cc1 (stereo not given)
Second: O=[N+]([O-])c1c(Nc2ccc3[nH]ccc3c2)ncnc1-c1ccc(C(F)(F)F)cc1F
The melting point of the first is higher: 309 to 310 °C for the first, 147 to 149 °C for the second.

First: CCCN1C(=O)c2ccccc2C1(O)c1ccc(F)cc1 (stereo not given)
Second: O=C1c2ccccc2C(=O)N1CCSc1ncccn1
The melting point of the first is higher: 172 to 175 °C for the first, 149 to 150 °C for the second.

Compared with `O=[N+]([O-])c1ccc2c(-n3ccnc3)nnc(NCc3ccc4c(c3)OCO4)c2c1`, `CC(C)N1C(=O)NC(c2ccc3ocnc3c2)c2cc3c(cc21)OCO3` (stereo not given) is lower in melting point: 154 to 156 °C for the first, 84 to 86 °C for the second.

First: O=[N+]([O-])c1ccc(COP(=O)(COS(=O)(=O)C(F)(F)F)OCc2ccc([N+](=O)[O-])cc2)cc1
Second: CCc1nnc(-c2ccc(OC)cc2)n1-c1ccc([N+](=O)[O-])cc1
The melting point of the first is lower: 73 to 75 °C for the first, 178 °C for the second.

First: Oc1ccc(-c2c(Br)ccc3sc4ccccc4c23)cc1
Second: Cc1cc(Nc2nc(-c3ccc(Cl)c(Cl)c3)nc3ccccc23)[nH]n1
The melting point of the first is lower: 185 to 186 °C for the first, 274 °C for the second.

Compared with `O=C(CCl)N1CC=C(c2cccc(C(F)(F)F)c2)n2ncc(Br)c21`, `Cc1c(F)c(Oc2cccc(C(F)(F)F)c2)nc(-c2ccc(C(F)(F)F)cc2)c1F` is lower in melting point: 128 to 130 °C for the first, 87 °C for the second.

Compared with `CCc1ccc2c(c1)C=Cc1ccccc1C2c1cn(Cc2ccc(C(=O)O)o2)c(=O)[nH]c1=O` (stereo not given), `COc1ccc(CN2C(=O)[C@H](N3C(=O)c4ccccc4C3=O)[C@@H]2C(=O)OCc2ccccc2)c(OC)c1` (relative stereo) is higher in melting point: 178 to 180 °C for the first, 198 to 200 °C for the second.

Compared with `CNCc1ccc(C2CCN(c3cc4c(cc3F)c(=O)c(C(=O)O)cn4C3CC3)C2)cc1` (stereo not given), `Cc1cc(C)c2nc(NC3CCN(CCC(N)=O)CC3)n(Cc3nc(C)ccc3O)c2c1` is lower in melting point: 235 to 237 °C for the first, 212 °C for the second.

Compared with `CCCC#Cc1ccnc2c1c(C(C)=O)cn2S(=O)(=O)c1ccccc1`, `CS(=O)(=O)c1cc(C(=O)O)c(Cl)cc1Oc1ccccc1` is higher in melting point: 134 to 136 °C for the first, 200 °C for the second.

First: Cc1ccc(S(=O)(=O)OCCC2(C)OCCc3nc(-c4ccccc4)sc32)cc1 (stereo not given)
Second: CCOC(=O)C1(CC(=O)O)C(=O)C=C(OCc2ccccc2)CC1c1ccc(C)cc1 (stereo not given)
The melting point of the first is lower: 86 to 87 °C for the first, 217 °C for the second.

First: O=C(O)CN1C(=O)C(=Cc2ccc(Cc3cccnc3)s2)SC1=S
Second: CCCn1c(=O)c2[nH]c(/C=C/c3cccnc3)nc2n(CCC)c1=O
The melting point of the first is lower: 254 to 256 °C for the first, 265 to 267 °C for the second.

First: CC(c1cccnc1)n1nnc2cc3c(cc2c1=O)OC1CCCN1C3=O (stereo not given)
Second: CCN1c2ncc(CCc3cccc(N)c3)cc2C(=O)N(C)c2ccc(Cl)nc21
The melting point of the first is higher: 195 to 196 °C for the first, 121 to 123 °C for the second.

First: CC(C)(C)OC(=O)c1ccc(NC2CCc3cc(NC(=O)COCc4ccccc4)c(C#N)cc32)cc1 (stereo not given)
Second: COc1ccc(C(=O)COc2ccc(C(=O)OCc3ccccc3)c(O)c2)cc1C12CC3CC(CC(C3)C1)C2
The melting point of the first is higher: 194 to 195 °C for the first, 129 °C for the second.

First: CCCCCCC1OC1(C(=O)OCC)C(=O)OCC (stereo not given)
Second: CCOC(=O)[C@@H](O)[C@@H]1OC(=O)c2cc(OC)c(OC)cc21
The melting point of the first is lower: 58 to 60 °C for the first, 144 to 146 °C for the second.

First: CCOc1ccc(C2=NNCCC2)cc1OCC
Second: CC(C)(CO)COc1ccc(-c2c(C(N)=O)oc3ccccc23)cc1C#N
The melting point of the first is lower: 77 to 78 °C for the first, 199 to 201 °C for the second.

First: CCCc1nc2c(N)nc3cccnc3c2n1CC1(O)CC1
Second: Nc1cccc(Oc2cccc3cccnc23)c1
The melting point of the first is higher: 199 to 200 °C for the first, 98 to 100 °C for the second.

Compared with `Cc1ccc([N+](=O)[O-])c(CC2NC(=O)NC2=O)c1C` (stereo not given), `COC1=C(OC)C(=O)C2=C(CCC(CCn3c(=O)ccc4ccccc43)CC2)C1=O` is lower in melting point: 172 to 174 °C for the first, 88 to 90 °C for the second.

`O=C(O)c1cc(OCC(F)(F)F)c(Cl)cc1[N+](=O)[O-]` and `CCCNC(=O)C1CC(=O)N(c2cc(C(F)(F)F)cc(C(F)(F)F)c2)C1` (stereo not given) cannot be ordered by melting point: 153 to 155 °C for the first, 152 to 154 °C for the second.

First: CN(C)C(=O)N(N=Cc1ccc(OC(F)(F)C(F)F)cc1)C(=N)NN=Cc1ccc(OC(F)(F)C(F)F)cc1
Second: OC(Cn1cncn1)(c1ccc(F)cc1F)C(F)(F)C(F)(F)F (stereo not given)
The melting point of the first is higher: 142 to 144 °C for the first, 95 to 96 °C for the second.

First: CCN(CC)C(=O)COC(=O)c1cccc(NC(=O)C(CSC(C)=O)Cc2ccccc2)c1 (stereo not given)
Second: CC(C)(C)COC(=O)C#CC1C(C(=O)OC(C#N)c2cccc(Oc3ccccc3)c2)C1(C)C (stereo not given)
The melting point of the first is higher: 143 to 144 °C for the first, 67 °C for the second.

First: Clc1ccn(-c2cccnc2)n1
Second: Cn1cc(S(C)=O)c(=O)c2sc(-c3cccc(Cl)c3)cc21 (stereo not given)
The melting point of the first is lower: 98 to 106 °C for the first, 249 to 251 °C for the second.

Compared with `Cc1cc(O)n2nc(CS)nc2n1`, `CC(C)c1c(Sc2cc(Cl)cc(Cl)c2)nc(COCCO)n1C` is lower in melting point: 215 °C for the first, 67 to 68 °C for the second.

Compared with `O=C(CC(=O)C1CC1)c1ccc(S(F)(F)(F)(F)F)cc1`, `C[C@H]1CCCC(C)(C)[C@@H]1[C@H](O)c1ccc(C#N)cc1` is higher in melting point: 70 to 72 °C for the first, 106 to 108 °C for the second.

Compared with `CCC[C@H](NC(=O)[C@H](C)N)C(=O)N[C@@H](C)P(=O)(O)O`, `COc1cc(C(C)C)ccc1C1(NC(N)=O)C(=O)c2ccccc2C1=O` is higher in melting point: 268 to 270 °C for the first, 272 to 274 °C for the second.

First: CC(=O)OC1CCC2(C)C(=CCC3C2CCC2(C)C(C(C)=O)=CCC32)C1 (stereo not given)
Second: CC(C)(C)OC(=O)N1CCn2c(c(C(N)=O)c(Br)c2C2CC2)C1
The melting point of the first is higher: 169 to 172 °C for the first, 162 °C for the second.

First: CNS(=O)(=O)c1cc(C(=O)CCCCCl)cc2c1CCC2
Second: COC(C)CNS(=O)(=O)c1cc(C2(O)CCC(=O)N2C)ccc1Cl (stereo not given)
The melting point of the first is lower: 107 to 109 °C for the first, 124 to 126 °C for the second.

First: CCCc1c(OCCCCCc2c(Cl)c(Cl)c(Cl)c(OC)c2OC)ccc(C(=O)OC)c1O
Second: COc1cc(-c2nc(N3CCOCC3)c3c(C)c(C#N)sc3n2)cc(OC)c1OC
The melting point of the first is lower: 84 to 87 °C for the first, > 250 °C for the second.

First: CN1C(=O)CC[C@]2(C)c3ccc(-c4cnc5ccccc5n4)cc3CC[C@@H]12
Second: CC1(C)N=C(c2ccccc2Cl)c2cc(N)ccc2-n2cnnc21
The melting point of the first is lower: 129 to 135 °C for the first, 264 °C for the second.

Compared with `O=S(=O)(c1ccccc1)C1C2CCC(C2)C1Br` (stereo not given), `O=Cc1ccccc1-c1nnn[nH]1` is higher in melting point: 108 to 110 °C for the first, 130 °C for the second.

First: COc1ccc(C(=O)N(C(=O)c2ccc(OC)cc2)c2nc3ccc(N(C)C)cc3c(NCc3ccccc3)c2C#N)cc1
Second: Cc1ccc(S(=O)(=O)NCC(CC(=O)Nc2ccc(C(=O)O)cc2)c2ccccc2)cc1 (stereo not given)
The melting point of the first is lower: 156 °C for the first, 225 to 227 °C for the second.

First: CS(=O)(=O)ON1C(=O)CCC1=O
Second: CCS(=O)(=O)c1cc(C(=O)NCC2CCCN2CC2CC2)c(OC)cc1N (stereo not given)
The melting point of the first is lower: 148 to 150 °C for the first, 181 °C for the second.

First: Cc1ccccc1-c1c(NC(=O)Nc2ccc(F)cc2F)c(=O)oc2ccc(C(C)C)cc12
Second: CC(c1ccccc1)c1cc(C(=O)O)c(O)c(C(C)c2ccccc2)c1 (stereo not given)
The melting point of the first is higher: 199 to 200 °C for the first, 147 to 150 °C for the second.

First: CCOC(=O)c1c(-c2ccc(C(C)(C)C)cc2)n(C)n(-c2ccc(C#N)cc2)c1=O
Second: O=C(O)c1ccc(C(=O)OC(c2ccc3c(c2)OCO3)c2ccc3c(c2)OCO3)s1
The melting point of the first is higher: 202 to 204 °C for the first, 141 to 148 °C for the second.

Compared with `O=C(c1sccc1-n1cccc1)N1CCCCC1`, `O=C1NCCc2c(-c3ccccc3CCCO)[nH]c3cccc1c23` is higher in melting point: 126 °C for the first, 234 °C for the second.

Compared with `Cc1ccccc1COCCCC(=O)O`, `COC12CC(CN3CCC(c4c[nH]c5ccccc45)CC3)CN(C)C1Cc1c(Br)[nH]c3cccc2c13` (stereo not given) is higher in melting point: 79 to 80 °C for the first, 160 to 170 °C for the second.

First: Clc1ccc(C2(Cn3cncn3)OCCO2)c(Cl)c1Cl
Second: Brc1cn2cncc2s1
The melting point of the first is higher: 181 °C for the first, 77 to 78 °C for the second.
